Where a SMILES comes first, the peptide text is derived from it. Bridges are numbered along the chain shown (N, C = ends). [ ]: non-standard residue; d: D form. Phe(3,4,5-F3) = N[C@@H](Cc1cc(F)c(F)c(F)c1)C(=O)O; d(cisHyp) = O=C(O)[C@H]1C[C@@H](O)CN1; Hyp = O=C(O)[C@@H]1C[C@@H](O)CN1; NMeF = CN[C@@H](Cc1ccccc1)C(=O)O; NMehSer = CN[C@@H](CCO)C(=O)O; NMeNle = CCCC[C@H](NC)C(=O)O; hSer = N[C@@H](CCO)C(=O)O; NMeA = CN[C@@H](C)C(=O)O; dThz = O=C(O)[C@H]1CSCN1; Dab = NCC[C@H](N)C(=O)O
Biological target: T1, Human PD-L1/PD-1 (Homo sapiens, UniProt Q9NZQ7)
T1 construct: TVMV protease cleavage site (C); made in house; host or cells: HEK293T cells
T1 sequence (Q9NZQ7 with tags, fused parts or gaps): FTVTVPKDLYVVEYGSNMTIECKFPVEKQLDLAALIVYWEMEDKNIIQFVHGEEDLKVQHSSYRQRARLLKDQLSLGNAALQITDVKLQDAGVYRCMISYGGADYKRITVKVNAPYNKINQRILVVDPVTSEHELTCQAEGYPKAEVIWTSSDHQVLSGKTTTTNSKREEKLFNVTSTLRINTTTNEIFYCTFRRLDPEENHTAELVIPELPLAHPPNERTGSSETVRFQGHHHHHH
Test: HTRF Human PD-L1/PD-1 binding assay (PD-1-Ig/PD-L1-His)
Conditions: PD-L1-His 10 nM, PD-1-Ig 20 nM; class symbol; read-out: HTRF Human PD-L1/PD-1 Binding Assay IC50 Range
Procedure, shortened: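 Step 1: compound with PD-L1-His (10 nM final), 15 min. Step 2: PD-1-Ig (20 nM final), 15 min. Step 3: Eu-cryptate anti-Ig (1 nM) plus APC anti-His (20 nM), 30 min equilibration. Signal taken as 665 nm/620 nm ratio.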

Compound	IC50
CCCC[C@H]1C(=O)N(C)[C@@H](CCOC)C(=O)N[C@@H](CC(C)C)C(=O)N[C@H](C(=O)NCC(N)=O)CSCC(=O)N[C@@H](Cc2ccc(O)cc2)C(=O)N(C)[C@@H](C)C(=O)N[C@@H](CCN)C(=O)N2CCC[C@H]2C(=O)N[C@@H](Cc2c[nH]cn2)C(=O)N[C@@H](CCC(=O)O)C(=O)N2C[C@H](O)C[C@H]2C(=O)N[C@@H](Cc2c[nH]c3ccccc23)C(=O)N[C@@H](CO)C(=O)N[C@@H](Cc2c[nH]c3ccccc23)C(=O)N1C [Example 10146] ({CH2CO}-Y[NMeA][Dab]PHE[Hyp]WSW[NMeNle][NMehSer](Me)LCG-NH2; thioether N-14)	10 to 99.9 nM
CCCC[C@H]1C(=O)N(C)[C@@H](CCOC)C(=O)N[C@@H](CCC(=O)O)C(=O)N[C@H](C(=O)NCC(N)=O)CSCC(=O)N[C@@H](Cc2ccc(O)cc2)C(=O)N(C)[C@@H](C)C(=O)N[C@@H](CC(N)=O)C(=O)N2CCC[C@H]2C(=O)N[C@@H](Cc2c[nH]cn2)C(=O)N[C@@H](CCC(N)=O)C(=O)N2C[C@H](O)C[C@H]2C(=O)N[C@@H](Cc2c[nH]c3ccccc23)C(=O)N[C@@H](CO)C(=O)N[C@@H](Cc2c[nH]c3ccccc23)C(=O)N1C [Example 10147] ({CH2CO}-Y[NMeA]NPHQ[Hyp]WSW[NMeNle][NMehSer](Me)ECG-NH2; thioether N-14)	1 to 9.9 nM
CCCC[C@H]1C(=O)N2C[C@H](O)C[C@@H]2C(=O)N[C@@H](CC(=O)O)C(=O)N[C@@H](C(C)C)C(=O)N(C)[C@@H](Cc2ccccc2)C(=O)N[C@@H](CCC(=O)O)C(=O)N2CSC[C@@H]2C(=O)N[C@@H](Cc2c[nH]c3ccccc23)C(=O)N[C@@H](Cc2ccc(O)cc2)C(=O)N[C@@H](CC(C)C)C(=O)N[C@H](C(=O)NCC(N)=O)CSCC(=O)N[C@@H](Cc2cc(F)c(F)c(F)c2)C(=O)N(C)[C@@H](Cc2ccccc2)C(=O)N1C [Example 10148] ({CH2CO}-[Phe(3,4,5-F3)][NMeF][NMeNle][d(cisHyp)]DV[NMeF]E[dThz]WYLCG-NH2; thioether N-13)	1 to 9.9 nM
CCCC[C@H]1C(=O)N2C[C@H](O)C[C@@H]2C(=O)N[C@@H](CC(=O)O)C(=O)N[C@@H](C(C)C)C(=O)N(C)[C@@H](Cc2ccccc2)C(=O)N[C@@H](CC(=O)O)C(=O)N2CSC[C@@H]2C(=O)N[C@@H](Cc2c[nH]c3ccccc23)C(=O)N[C@@H](Cc2ccc(O)cc2)C(=O)N[C@@H](CC(C)C)C(=O)N[C@H](C(=O)NCC(N)=O)CSCC(=O)N[C@@H](Cc2cc(F)c(F)c(F)c2)C(=O)N(C)[C@@H](Cc2ccccc2)C(=O)N1C [Example 10149] ({CH2CO}-[Phe(3,4,5-F3)][NMeF][NMeNle][d(cisHyp)]DV[NMeF]D[dThz]WYLCG-NH2; thioether N-13)	1 to 9.9 nM
CCCC[C@H]1C(=O)N2C[C@H](O)C[C@@H]2C(=O)N[C@@H](CC(=O)O)C(=O)N[C@@H](C(C)C)C(=O)N(C)[C@@H](Cc2ccccc2)C(=O)N[C@@H](CCC(=O)O)C(=O)N2CSC[C@@H]2C(=O)N[C@@H](Cc2c[nH]c3ccccc23)C(=O)N[C@@H](Cc2ccc(O)cc2)C(=O)N[C@@H](CCO)C(=O)N[C@H](C(=O)NCC(N)=O)CSCC(=O)N[C@@H](Cc2cc(F)c(F)c(F)c2)C(=O)N(C)[C@@H](Cc2ccccc2)C(=O)N1C [Example 10150] ({CH2CO}-[Phe(3,4,5-F3)][NMeF][NMeNle][d(cisHyp)]DV[NMeF]E[dThz]WY[hSer]CG-NH2; thioether N-13)	1 to 9.9 nM
CCCC[C@H]1C(=O)N2C[C@H](O)C[C@@H]2C(=O)N[C@@H](CC(=O)O)C(=O)N[C@@H](C(C)C)C(=O)N(C)[C@@H](Cc2ccccc2)C(=O)N[C@@H](CC(=O)O)C(=O)N2CSC[C@@H]2C(=O)N[C@@H](Cc2c[nH]c3ccccc23)C(=O)N[C@@H](Cc2ccc(O)cc2)C(=O)N[C@@H](CCO)C(=O)N[C@H](C(=O)NCC(N)=O)CSCC(=O)N[C@@H](Cc2cc(F)c(F)c(F)c2)C(=O)N(C)[C@@H](Cc2ccccc2)C(=O)N1C [Example 10151] ({CH2CO}-[Phe(3,4,5-F3)][NMeF][NMeNle][d(cisHyp)]DV[NMeF]D[dThz]WY[hSer]CG-NH2; thioether N-13)	1 to 9.9 nM
